# Article PMC8873251, “An amiloride derivative is active against the F1Fo-ATP synthase and cytochrome bd oxidase of Mycobacterium tuberculosis” (Communications Biology, 2022)
# pIC50: −log10 of the molar value.
# How the values were obtained:
# [1] = biological target: T1, cytochrome bd oxidase (Mycobacterium tuberculosis, UniProt L7N662+O06139); assay: malate-driven oxygen consumption in IMVs pre-inhibited with TB47, titration; empty-vector control; type: biochemical
# T1 construct: gene cydA
# [2] = biological target: T2, F1Fo-ATP synthase c-subunit (c-ring) (Mycolicibacterium phlei, UniProt A0A5N5V239); assay: MALDI-MS competition with DCCD labelling of purified c-ring; type: binding
# T2 construct: gene atpE
# [3] = biological target: T2, F1Fo-ATP synthase c-subunit (c-ring); assay: MALDI-MS time course of covalent c-subunit labelling; type: binding
# T2 sequence (A0A5N5V239 1-86): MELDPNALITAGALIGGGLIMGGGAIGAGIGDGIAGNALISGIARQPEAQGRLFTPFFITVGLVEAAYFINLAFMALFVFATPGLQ
# T1 sequence (O06139 entry or part of it): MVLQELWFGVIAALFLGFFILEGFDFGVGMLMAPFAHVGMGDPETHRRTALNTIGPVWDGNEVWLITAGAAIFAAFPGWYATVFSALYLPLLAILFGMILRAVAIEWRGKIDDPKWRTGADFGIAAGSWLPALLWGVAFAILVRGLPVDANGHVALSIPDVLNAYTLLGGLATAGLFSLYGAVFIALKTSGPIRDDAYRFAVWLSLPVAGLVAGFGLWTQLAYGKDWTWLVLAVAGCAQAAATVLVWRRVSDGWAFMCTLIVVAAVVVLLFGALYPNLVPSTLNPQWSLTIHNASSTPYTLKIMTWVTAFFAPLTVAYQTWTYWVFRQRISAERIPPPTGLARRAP
# T1 sequence (L7N662 entry or part of it): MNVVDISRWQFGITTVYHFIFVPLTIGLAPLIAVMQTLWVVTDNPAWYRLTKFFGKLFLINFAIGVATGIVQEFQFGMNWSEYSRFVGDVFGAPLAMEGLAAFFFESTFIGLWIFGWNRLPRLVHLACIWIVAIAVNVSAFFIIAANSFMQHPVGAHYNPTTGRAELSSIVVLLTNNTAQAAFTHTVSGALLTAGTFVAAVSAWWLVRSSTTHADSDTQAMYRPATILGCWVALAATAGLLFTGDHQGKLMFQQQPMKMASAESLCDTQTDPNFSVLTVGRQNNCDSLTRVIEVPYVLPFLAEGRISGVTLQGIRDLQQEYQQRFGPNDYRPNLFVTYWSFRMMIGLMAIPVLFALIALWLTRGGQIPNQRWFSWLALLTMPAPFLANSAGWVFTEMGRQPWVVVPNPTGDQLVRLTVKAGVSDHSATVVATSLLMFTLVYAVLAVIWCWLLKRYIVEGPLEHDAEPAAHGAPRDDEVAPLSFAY
compound,measurement,setting,value
N=C(N)NC(=O)c1nc(-c2cc3ccccc3o2)c(N)nc1N [HM2-16F],pIC50,[1],4.67
"N=C(N)NC(=O)c1nc(Cl)c(N2CCCCCC2)nc1N [HMA, 5-(N,N-hexamethylene)amiloride]",MALDI-MS competition with DCCD labelling of purified c-ring,[2],HMA was able to outcompete the canonical c-ring covalent inhibitor DCCD for inhibition of the M. phlei F1Fo-ATP synthase c-subunit
"C(=NC1CCCCC1)=NC1CCCCC1 [DCCD, N,N'-dicyclohexylcarbodiimide]",MALDI-MS time course of covalent c-subunit labelling,[3],Time course of DCCD labelling in purified M. phlei c-rings in the presence of the indicated amounts of HMA
